According to US12465582B2, “(S)-2-amino-6-((3-aminopropyl)amino)hexanoic acid (APL) for use in the treatment of non-alcoholic steatohepatitis (NASH), liver inflammation, hepatocellular ballooning, liver fibrosis and steatosis” (Temple University—Of The Commonwealth System Of Higher …, priority 2020, dated 2025):

Tested on: C57BL/6J mice fed AMLN diet changed to HFD
Assay: Liver function serum biomarkers in AMLN diet mouse model of NASH
Type: in vivo
Settings: 16 weeks (week 50-66)
Experimental: C57BL/6 mice were maintained in cages and had free access to standard rodent chow (Cat #5053, obtained from Labdiet, Saint Louis, MO) and water. C57BL/6J mice were fed either CHOW (negative control) or amylin liver NASH (AMLN) diet (58% high fat, 25% carbohydrate, 2% cholesterol) for twenty (20) weeks. Beginning at twenty (20) weeks, animals fed AMLN diet were changed to HFD. At fifty (50) weeks, animals were treated twice daily (b.i.d.) with oral administration (p.o.) of either vehicle (positive control) or APL (treated).

NCCCNCCCC[C@H](N)C(=O)O [APL, (S)-2-amino-6-((3-aminopropyl)amino)hexanoic acid]
significant reduction: serum ALP vs positive control (APL 50 mg/kg/day p.o. b.i.d.) | serum ALT vs positive control (APL 50 mg/kg/day p.o. b.i.d.) | serum AST vs positive control (APL 50 mg/kg/day p.o. b.i.d.) | serum nonesterified fatty acids (NEFA) vs positive control (APL 50 mg/kg/day p.o. b.i.d.) | serum triglycerides vs positive control (APL 50 mg/kg/day p.o. b.i.d.) | serum cholesterol vs positive control (APL 200 mg/kg/day p.o. b.i.d.)
